According to patent US6313090A, “Methods for treating parasitic infection using thiopeptides” (The United States of America as represented by the …, priority 2000, dated 2001):
Where two headings read alike, the source gives them in different places.

Test system: C. parvum GCH1 oocysts
Test: Intact C. parvum oocyst assay on MDBKF5D2 cell monolayers, immunofluorescence
Assay type: cell-based
Conditions: for inhibition at 2000 µg/mL / inhibition at 250 µg/mL / inhibition at 500 µg/mL / inhibition at 1000 µg/mL: Cryptosporidium parvum
Description: In vitro doses of drugs. Thiostrepton (Calbiochem) was dissolved in sterile complete Dulbecco's Modified Eagle Medium (DMEM) supplemented with dimethyl sulfoxide (DMSO) at 0.2% and tested at concentrations of 800, 400, 200, and 100, 10, 1 and 0.1 μg/ml.
(§1) Intact C. parvum oocyst asset 3.0×10^4 C. parvum GCH1 oocysts per well were incubated in the above-mentioned concentrations of drug at 37° C. (8% CO2) on confluent MDBKF5D2 cell monolayers in 96 well microtiter plates. The level of infection in each well was determined and analyzed by immunofluorescence assay at 48 hours, using C. parvum sporozoite rabbit anti-serum (0.1%) and fluorescein-conjugated goat anti-rabbit antibody (1.0%). Percent inhibition was calculated by subtracting the mean parasite/drug from the mean parasitelmedium, divided by the mean parasite/medium, all of which was multiplied by 100. The analysis was performed using MCID and an inverted microscope.
In vitro doses of drugs. Thiostrepton (Calbiochem) and Phavic (NTZ) were dissolved in sterile complete Dulbecco's Modified Eagle Medium (DMEM) supplemented with dimethyl sulfoxide (DMSO) at 0.2% and tested at concentrations of 800, 400, 200, and 100 μg/ml. NTZ was tested at concentrations of 100, 10, 1 and 0.1 μg/ml. Paromomycin (Sigma) was dissolved in DMEM and tested at concentrations of 2000, 1000, 500 and 250 μg/ml.
as §1, with “assay .” for “asset”, “plates. For some monolayers, the oocysts were incubated in DMEM on the cell monolayers for four hours, at which time the monolayers were washed and then drug was added to the wells.” for “plates.”, “parasite/medium,” for “parasitelmedium,”
In vitro doses of drugs. Thiostrepton (Calbiochem), Phavic (NTZ) were dissolved in sterile complete Dulbecco's Modified Eagle Medium (DMEM) supplemented with dimethyl sulfoxide (DMSO) at 0.2%. Thiostrepton was tested at a concentration of 800 μg/ml. NTZ was tested at a concentration of 10 μg/ml. Paromomycin was dissolved in DMEM and tested at 2000 μg/ml. Cell monolayers were infected and washed, followed by the addition of drug at time intervals of 0, 2, 4, 8 and 24 hours.
as §1, with “assay.” for “asset”, “analyze” for “analyzed”, “parasite/medium,” for “parasitelmedium,”

In the case of NC[C@@H]1O[C@H](O[C@H]2[C@@H](O)[C@H](O[C@@H]3[C@@H](O)[C@H](N)C[C@H](N)[C@H]3O[C@H]3O[C@H](CO)[C@@H](O)[C@H](O)[C@H]3N)O[C@@H]2CO)[C@H](N)[C@@H](O)[C@@H]1O [PRM, paromomycin], the inhibition at 2000 µg/mL (0 h, Table 5, 2000 μg/ml, drug added at 0 hrs, read-out: Inhibition Percent) is reported as 77.4%, the inhibition at 2000 µg/mL (0 h, Table 5, 2000 μg/ml, drug added at 0 hrs, read-out: Inhibition Score) is reported as 71 to 90% and the inhibition at 2000 µg/mL (2 h, Table 5, 2000 μg/ml, drug added at 2 hrs, read-out: Inhibition Percent) is reported as 89.4%. The inhibition at 2000 µg/mL (2 h, Table 5, 2000 μg/ml, drug added at 2 hrs, read-out: Inhibition Score) was 71 to 90%, the inhibition at 250 µg/mL (4 h, Table 4 Washed at 4 hours, 250 μg/ml, read-out: Inhibition Percent) was 59.3% and the inhibition at 250 µg/mL (4 h, Table 4 Washed at 4 hours, 250 μg/ml, read-out: Inhibition Score) was 56 to 70%. For the same compound, the inhibition at 500 µg/mL (4 h, Table 4 Washed at 4 hours, 500 μg/ml, read-out: Inhibition Percent) was 69.2%, the inhibition at 500 µg/mL (4 h, Table 4 Washed at 4 hours, 500 μg/ml, read-out: Inhibition Score) was 56 to 70% and the inhibition at 1000 µg/mL (4 h, Table 4 Washed at 4 hours, 1000 μg/ml, read-out: Inhibition Percent) was 79.2%. The inhibition at 1000 µg/mL (4 h, Table 4 Washed at 4 hours, 1000 μg/ml, read-out: Inhibition Score) was 71 to 90%, the inhibition at 2000 µg/mL (4 h, Table 4 Washed at 4 hours, 2000 μg/ml, read-out: Inhibition Percent) was 82.5% and the inhibition at 2000 µg/mL (4 h, Table 4 Washed at 4 hours, 2000 μg/ml, read-out: Inhibition Score) was 71 to 90%. For the same compound, the inhibition at 2000 µg/mL (4 h, Table 5, 2000 μg/ml, drug added at 4 hrs, read-out: Inhibition Percent) was 79%, the inhibition at 2000 µg/mL (4 h, Table 5, 2000 μg/ml, drug added at 4 hrs, read-out: Inhibition Score) was 71 to 90% and the inhibition at 2000 µg/mL (8 h, Table 5, 2000 μg/ml, drug added at 8 hrs, read-out: Inhibition Percent) was 72.2%. For the same compound, the inhibition at 2000 µg/mL (8 h, Table 5, 2000 μg/ml, drug added at 8 hrs, read-out: Inhibition Score) was 71 to 90%, the inhibition at 2000 µg/mL (24 h, Table 5, 2000 μg/ml, drug added at 24 hrs, read-out: Inhibition Percent) was 27% and the inhibition at 2000 µg/mL (24 h, Table 5, 2000 μg/ml, drug added at 24 hrs, read-out: Inhibition Score) was 0 to 30%. For the same compound, the inhibition at 2000 µg/mL (Table 1, 2000 μg/ml, read-out: Inhibition Percent) was 73.2%, the inhibition at 2000 µg/mL (Table 1, 2000 μg/ml, read-out: Inhibition Score) was 71 to 90% and the inhibition at 2000 µg/mL (Table 2, 2 mg/ml, read-out: Inhibition Percent) was 69.7%. For the same compound, the inhibition at 2000 µg/mL (Table 2, 2 mg/ml, read-out: Inhibition Score) was 56 to 70%, the inhibition at 250 µg/mL (Table 3 Unwashed, 250 μg/ml, read-out: Inhibition Percent) was 68% and the inhibition at 250 µg/mL (Table 3 Unwashed, 250 μg/ml, read-out: Inhibition Score) was 56 to 70%. It also gave an inhibition at 500 µg/mL (Table 3 Unwashed, 500 μg/ml, read-out: Inhibition Percent) of 71.9%, an inhibition at 500 µg/mL (Table 3 Unwashed, 500 μg/ml, read-out: Inhibition Score) of 71 to 90% and an inhibition at 1000 µg/mL (Table 3 Unwashed, 1000 μg/ml, read-out: Inhibition Percent) of 79.3%. The inhibition at 1000 µg/mL (Table 3 Unwashed, 1000 μg/ml, read-out: Inhibition Score) was 71 to 90%, the inhibition at 2000 µg/mL (Table 3 Unwashed, 2000 μg/ml, read-out: Inhibition Percent) was 81.9% and the inhibition at 2000 µg/mL (Table 3 Unwashed, 2000 μg/ml, read-out: Inhibition Score) was 71 to 90%. For the same compound, the inhibition at 2000 µg/mL (Table 6, 2 mg/ml, read-out: Inhibition Percent) was 76.3%, the inhibition at 2000 µg/mL (Table 6, 2 mg/ml, read-out: Inhibition Score) was 71 to 90% and the “Parasite Count” value (Table 1, 2000 μg/ml) was 278.06. For the same compound, the “Inhibition Percent” value (Table 2, 2 mg/ml) was 76.61%, the “Inhibition Score” value (Table 2, 2 mg/ml) was 3 (3: 71-90%) and the “Parasite Count” value (Table 2, 2 mg/ml) was 423.81. The “Parasite Count” value (Table 2, 2 mg/ml, listed as PRM/DMSO) was 369.81, the “Parasite Count” value (Table 3 Unwashed, 250 μg/ml) was 453.94 and the “Parasite Count” value (Table 3 Unwashed, 500 μg/ml) was 398.31. For the same compound, the “Parasite Count” value (Table 3 Unwashed, 1000 μg/ml) was 293.56, the “Parasite Count” value (Table 3 Unwashed, 2000 μg/ml) was 256.38 and the “Parasite Count” value (Table 4 Washed at 4 hours, 250 μg/ml) was 492.13. The “Parasite Count” value (Table 4 Washed at 4 hours, 500 μg/ml) was 372.44, the “Parasite Count” value (Table 4 Washed at 4 hours, 1000 μg/ml) was 251.88 and the “Parasite Count” value (Table 4 Washed at 4 hours, 2000 μg/ml) was 211.38. For the same compound, the “Parasite Count” value (Table 5, 2000 μg/ml, drug added at 0 hrs) was 287.63, the “Parasite Count” value (Table 5, 2000 μg/ml, drug added at 2 hrs) was 134.94 and the “Parasite Count” value (Table 5, 2000 μg/ml, drug added at 4 hrs) was 267.25. For the same compound, the “Parasite Count” value (Table 5, 2000 μg/ml, drug added at 8 hrs) was 354.06, the “Parasite Count” value (Table 5, 2000 μg/ml, drug added at 24 hrs) was 929.19 and the “Parasite Count” value (Table 6, 2 mg/ml) was 325.75. For the same compound, the “activity when drug is added 24 hours after infection” value (intracellular stages only) was “activity drops”.
